Results reported in patent US20130072517A1 (Avanir Pharmaceuticals, Inc., priority 2002, published 2013).

What was measured:
[1] = test system: ALS subjects with pseudobulbar affect; assay: Clinical Study #4: CNS-LS score (primary efficacy); format: in vivo, human; conditions: for Difference vs 30DM/30Q, mean difference in the CNS-LS reduction: controlling for baseline CNS-LS and study site
From the text: This was a multicenter, randomized, double-blind, controlled, parallel-group study. All study drugs were self-administered orally every twelve hours for twenty-eight days. The study included a screening visit and three other clinic visits on Days 1, 15, and 29. Day 29 was the last day the subject was on study and could occur anywhere between the morning of Day 26 and the morning of Day 32.
Subjects with clinically diagnosed pseudobulbar affect were screened for general health within four weeks before entry into the study. All eligible subjects had attained a score of 13 or above on the Center for Neurologic Study-Lability Scale (CNS-LS) at the clinic visit on Day 1.
Diary cards were collected on Day 15 and at the time of study completion.
Subjects completed the CNS-LS questionnaire and visual analog scales assessing quality of life (QOL) and quality of relationships (QOR) every two weeks (Days 1, 15, and 29) during the treatment period. A clinical psychologist, or other approved clinician, administered the Hamilton Rating Scale for Depression (HRSD) at the Screening Visit and on Day 29. Safety was evaluated on Day 15 and Day 29 by examining adverse events, results of physical examinations, vital signs, clinical laboratory values, and resting electrocardiograms (ECGs). In addition to blood samples taken to provide clinical laboratory data, blood was also taken for pharmacokinetic analysis and CYP2D6 genotyping. Each subject completed a diary in which the number of episodes experienced, medications taken, and any adverse events were recorded daily.
The primary efficacy variable was the CNS-LS score. All efficacy variables involving a change were determined by the baseline score being subtracted from the mean of the non-missing scores on Days 15 and 29. The secondary efficacy variables were laughing/crying episodes, QOL scores, and QOR scores. […]
The CNS-LS questionnaire used to assess primary efficacy is a seven-item self-report measure that provides a score for total pseudobulbar affect; it required approximately five minutes for the subject to complete. The range of possible scores was 7 to 35. […] This questionnaire is the only instrument for the measurement of pseudobulbar affect validated for use with ALS subjects.
The primary efficacy analysis was the change from baseline in CNS-LS scores, adjusted for center and baseline CNS-LS score. The descriptive statistics for the ITT Population are in Table 29.
These distributions have not been adjusted for baseline scores or for study site. […] As prospectively specified in the protocol, the differences in mean improvement in CNS-LS scores, adjusted for center and baseline CNS-LS scores, were analyzed by using linear regression according to the ANCOVA method of Frison and Pocock.

[2] = format: in vivo
From the text: An adverse event was any unfavorable and unintended sign (including an abnormal laboratory finding, for example), symptom, or disease temporally associated with the use of a medicinal product, whether or not considered related to the medicinal product. Changes associated with normal growth and development not varying in frequency or magnitude from that ordinarily anticipated clinically are not adverse events (for example, onset of menstruation occurring at a physiologically appropriate time). Clinical adverse events were described by diagnosis and not by symptoms when possible (for example, cold or seasonal allergies, instead of “runny nose”).
The severity of adverse events was graded on a 3-point scale and reported in detail as indicated on the Case Report Form: mild—easily tolerated, causing minimal discomfort, and not interfering with normal everyday activities; moderate—sufficiently discomforting to interfere with normal everyday activities; and severe—incapacitating and/or preventing normal everyday activities.
Subjects were instructed to promptly report any adverse event. The serious adverse event was assessed for the following details: seriousness of event, start date, stop date, intensity, frequency, relationship to test drug, action taken regarding test drug, treatment required, and outcome to date. These details were recorded on the Case Report Form. Such preliminary reports were followed by detailed descriptions that included copies of hospital case reports, autopsy reports, and other documents when requested and applicable.
Blood and urine were collected at the screening visit and Day 29 for clinical chemistry, hematology, urinalysis, and pregnancy testing. In the event of an abnormal laboratory test value, the test was repeated within one week, and the subject was followed up until the value returned to the normal range and/or until an adequate explanation of the abnormality was found.
(§1) Values were obtained for systolic and diastolic blood pressure, heart rate, and respiration rate on the screening visit and all other study visits. All values outside the pre-defined ranges were flagged in the subject data listings. Electrocardiography (twelve lead) was used to obtain ventricular rate (VR), QT, Q-Tc intervals, […] (PR), and QRS duration. A blood sample (10 mL whole blood) was taken from each subject at the Screening Visit for CYP2D6 genotyping to determine which subjects were poor metabolizers of DM and which were extensive metabolizers. Blood samples were taken on Day 29 for the determination of concentrations of DM, DX, and Q in plasma. The relationship between the concentration of drug in plasma and changes in CNS-LS scores was determined, and the effect of the CYP2D6 genotype on this relationship was evaluated.

[3] = Clinical Study #4: concentrations of DM, DX and Q in plasma on Day 29; format: in vivo, human; conditions: blood collection within 8 hours of last dose
Procedure: as §1
Q in this combination product inhibits the rapid first-pass metabolism of DM.

[4] = Clinical Study #5: concentrations in plasma of DM, DX and Q and correlation with pain intensity; format: in vivo, human; conditions: final visit; for Concentration in plasma, Mean / Concentration in plasma, Median: extensive metabolizers
Procedure: Subjects visited the clinic every two weeks during the four-week duration of the study and were contacted by telephone during weeks without clinic visits. At each subsequent study visit or weekly phone call, the subjects were given the Pain Intensity Rating Scale and the Pain Relief Rating Scale and were queried regarding any adverse events that might have occurred since their previous visit. Subjects were administered the Peripheral Neuropathy Quality of Life (QOL) Instrument on Days 1 and 29 (or the final visit). Blood samples were taken at the visits on Day 15 and Day 29 to determine concentrations in plasma of DM, DX, and Q.

[5] = Clinical Study #1: adverse events in dextromethorphan phenotyping and quinidine dose determination study; conditions: single oral dose 30 mg capsule; headache, mild
Procedure: A phenotyping study directed to dextromethorphan was conducted. The study was an open-label single dose study. Subjects were screened to ensure they met the inclusion and exclusion criteria. Subjects received a single oral dose of dextromethorphan hydrobromide 30 mg capsule taken with 240 mL of tap water. A total of fifty-eight subjects were screened and fifty subjects dosed. The study determined each subject's ability to metabolize dextromethorphan. Subjects who met the inclusion/exclusion criteria remained in house for dosing. Each subject was administered one 30 mg capsule (P.M.) of dextromethorphan. Urine was collected predose through 12 hours postdose and analyzed for dextromethorphan and dextrorphan.
The study was an open-label, randomized, multiple dose study. Subjects identified as extensive metabolizers received an evening dose on Day 1, at 12-hour intervals for the next six days, with a final morning dose on Day 8. All subjects were instructed to dose themselves at home on eight occasions with medication dispensed to them. Subjects maintained a diary during the study to record adverse effects. […]
A total of eight blood samples (40 mL) were drawn during the study (including the dextromethorphan screen) for drug analysis. […] At the end of the interval, the total volume was recorded and two aliquots were frozen at −20° C. until assayed for dextromethorphan and dextrorphan.

[6] = ITT population, mean of scores on Day 15 and Day 29 minus baseline (Day 1) score

Structure (SMILES): COc1ccc2c(c1)[C@]13CCCCC1[C@H](C2)N(C)CC3 (single isomer, unassigned; (+)) [Dextromethorphan, (+)-3-methoxy-N-methylmorphinan]
- Difference vs 30DM/30Q, mean difference in the CNS-LS reduction ([1]; Efficacy Evaluable Population (n = 101)): −3.78
- Difference vs 30DM/30Q, mean difference in the CNS-LS reduction ([1]; ITT Population (n = 125)): −3.29
- Change in CNS-LS scores, Max [1, 6]: 2.0
- Change in CNS-LS scores, Mean [1, 6]: −5.12
- Change in CNS-LS scores, Median [1, 6]: −4.50
- Change in CNS-LS scores, Min [1, 6]: −25.00
- Difference vs 30DM/30Q, mean difference in the CNS-LS reduction ([1]; Safety Population (n = 136)): −3.09
- Subjects with dizziness ([2]; 28 days, twice daily): 15.2%
- Subjects with loose stools ([2]; 28 days, twice daily): Three
- Subjects with nausea ([2]; 28 days, twice daily): 6.1%
- Subjects with somnolence ([2]; 28 days, twice daily): 3.0%
- Subjects who withdrew because of adverse events ([2]; human, in vivo, 29 days): 6.1%
- CPK, change Baseline to Day 29 ([2]; relative to the 30DM/30Q group): significant increase in CPK
- concentration of DM in plasma, Max [3]: 15.81
- concentration of DM in plasma, Mean [3]: 5.18
- concentration of DM in plasma, Median [3]: 4.55
- concentration of DM in plasma, Min [3]: 0.35
- Concentration in plasma, Mean ([4]; DM/Q MTD 30 mg): 59.0 ng/mL
- Concentration in plasma, Median ([4]; DM/Q MTD 30 mg): 67.4 ng/mL
- Concentration in plasma, Mean ([4]; DM/Q MTD 60 mg): 46.2 ng/mL
- Concentration in plasma, Median ([4]; DM/Q MTD 60 mg): 1.5 ng/mL
- Concentration in plasma, Mean ([4]; DM/Q MTD 90 mg): 117.0 ng/mL
- Concentration in plasma, Median ([4]; DM/Q MTD 90 mg): 117.0 ng/mL
- Concentration in plasma, Mean ([4]; DM/Q MTD 120 mg): 192.6 ng/mL
- Concentration in plasma, Median ([4]; DM/Q MTD 120 mg): 178.0 ng/mL
- Concentration in plasma, Mean ([4]; Total, all MTDs): 153.7 ng/mL
- Concentration in plasma, Median ([4]; Total, all MTDs): 144.5 ng/mL
- Concentration in plasma ([4]; poor metabolizer (MTD of 60 mg)): 126.4 ng/mL
- Adverse effects reported during the phenotyping study [5]: One
